According to the NIST ThermoML archive (doi:10.1016/j.jct.2015.04.029):

Assay: wn = mass fraction of the nth substance listed
Conditions: for surface tension liquid-gas: Maximal bubble pressure; for mass density: 100 kPa, Liquid, Vibrating tube method

CCC[n+]1ccn(C)c1.N[C@@H](CO)C(=O)[O-] [1-methyl-3-propylimidazolium L-serinate] + O
Conditions	mass density, w2 = 0.00636 [kg/m3]	mass density, w2 = 0.00785 [kg/m3]	mass density, w2 = 0.00939 [kg/m3]	mass density, w2 = 0.0109 [kg/m3]	mass density, w2 = 0.0124 [kg/m3]	surface tension liquid-gas, w2 = 0.00641 [mN/m]	surface tension liquid-gas, w2 = 0.00791 [mN/m]	surface tension liquid-gas, w2 = 0.00942 [mN/m]	surface tension liquid-gas, w2 = 0.01091 [mN/m]	surface tension liquid-gas, w2 = 0.01241 [mN/m]
298.15 K	1181.69	1181.73	1181.78	1181.82	1181.86	50.2	50.8	51.7	52.5	53.2
303.15 K	1178.52	1178.56	1178.61	1178.65	1178.69	49.9	50.5	51.4	52.1	52.9
308.15 K	1175.36	1175.39	1175.43	1175.47	1175.52	49.6	50.2	50.9	51.8	52.5
313.15 K	1172.21	1172.24	1172.29	1172.33	1172.37	49.2	49.9	50.5	51.4	52
318.15 K	1169.06	1169.09	1169.13	1169.18	1169.22	48.8	49.5	50.1	50.9	51.6
323.15 K	1165.86	1165.89	1165.94	1165.98	1166.03	48.5	49.2	49.8	50.6	51.2
328.15 K	1162.76	1162.79	–	–	–	48.2	48.8	49.5	50.2	50.8
